Results on 14 compounds are retold here after patent US20240208992A1, “MACROCYCLES AS CFTR MODULATORS” (Idorsia Pharmaceuticals Ltd, priority 2021, published 2024).

The structures appear in SMILES notation.

This experiment addresses human F508del-CFTR (Homo sapiens, UniProt P13569, DEL508-508). In words: F508del-CFTR cell surface expression (corrector activity), DiscoveRx ß-galactosidase complementation chemiluminescence assay in recombinant U2OS cell line.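 For all read-outs here: U2OS cells co-expressing ProLink-tagged F508del-CFTR and a membrane-anchored enzyme acceptor, where more surface CFTR restores β-galactosidase activity measured by chemiluminescence.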 The note with it: for EC50: EC50, F508del-CFTR cell surface expression, geomean values; for Emax: U2OS, arithmetic mean values.
Where [1] appears, read: U2OS cell line, 16h compound incubation.
Where [2] appears, read: in relation to the Emax of the corrector lumacaftor (=100%), U2OS cell line, 16h compound incubation.
Setting [3] is: U2OS cells, 16h compound incubation.
The mark [4] stands for this setting: in relation to Emax of corrector lumacaftor (=100%).

human F508del-CFTR, sequence (P13569 with tags, fused parts or gaps DEL508-508): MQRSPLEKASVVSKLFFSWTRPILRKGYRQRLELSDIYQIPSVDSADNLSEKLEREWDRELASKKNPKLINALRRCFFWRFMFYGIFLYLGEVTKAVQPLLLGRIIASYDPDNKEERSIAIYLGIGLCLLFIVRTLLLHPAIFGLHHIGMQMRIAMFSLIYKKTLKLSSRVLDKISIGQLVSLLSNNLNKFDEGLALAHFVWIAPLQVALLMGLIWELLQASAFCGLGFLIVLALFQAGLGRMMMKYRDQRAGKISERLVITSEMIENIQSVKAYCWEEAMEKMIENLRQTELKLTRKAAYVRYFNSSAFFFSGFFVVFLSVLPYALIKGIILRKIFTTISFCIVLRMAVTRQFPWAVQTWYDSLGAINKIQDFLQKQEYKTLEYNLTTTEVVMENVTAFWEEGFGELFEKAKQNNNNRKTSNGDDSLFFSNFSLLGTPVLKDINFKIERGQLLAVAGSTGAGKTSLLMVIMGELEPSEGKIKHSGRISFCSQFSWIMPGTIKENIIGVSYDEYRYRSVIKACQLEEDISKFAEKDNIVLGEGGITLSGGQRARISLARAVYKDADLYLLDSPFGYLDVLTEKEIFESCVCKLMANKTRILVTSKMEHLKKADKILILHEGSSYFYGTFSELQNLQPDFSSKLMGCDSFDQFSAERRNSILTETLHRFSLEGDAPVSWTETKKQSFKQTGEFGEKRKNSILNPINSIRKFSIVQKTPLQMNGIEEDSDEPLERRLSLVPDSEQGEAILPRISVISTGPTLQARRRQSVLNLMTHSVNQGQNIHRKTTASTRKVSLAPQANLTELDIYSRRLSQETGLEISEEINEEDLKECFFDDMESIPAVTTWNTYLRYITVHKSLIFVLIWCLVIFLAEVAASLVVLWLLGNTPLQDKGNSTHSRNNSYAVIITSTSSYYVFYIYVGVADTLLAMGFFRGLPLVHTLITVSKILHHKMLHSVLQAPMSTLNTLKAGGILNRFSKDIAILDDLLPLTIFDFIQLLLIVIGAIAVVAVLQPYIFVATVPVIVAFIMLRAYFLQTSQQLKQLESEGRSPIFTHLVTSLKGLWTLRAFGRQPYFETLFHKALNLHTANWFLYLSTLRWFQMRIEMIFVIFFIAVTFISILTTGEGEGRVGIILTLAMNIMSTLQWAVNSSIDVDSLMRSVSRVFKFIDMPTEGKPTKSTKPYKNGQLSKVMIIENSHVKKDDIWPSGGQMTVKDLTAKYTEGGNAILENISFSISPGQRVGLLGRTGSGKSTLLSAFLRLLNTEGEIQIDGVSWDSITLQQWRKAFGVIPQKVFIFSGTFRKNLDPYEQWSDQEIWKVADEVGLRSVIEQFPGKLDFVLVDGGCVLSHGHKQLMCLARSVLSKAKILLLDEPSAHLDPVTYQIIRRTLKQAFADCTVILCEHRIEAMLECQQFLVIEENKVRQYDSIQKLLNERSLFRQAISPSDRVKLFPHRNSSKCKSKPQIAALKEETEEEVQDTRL

By EC50 is commonly meant the concentration that produces a half-maximal response. For orientation: Emax means the maximal effect, on the per cent scale that the assay sets. With `COc1cccc(CCNC(=O)[C@@H]2CC(=O)N(C)[C@@H](CC(C)C)C(=O)N3CCN(C4CCC4)C[C@H]3C(=O)N[C@H](Cc3ccccc3)COc3cnc4ccccc4c3C(=O)N2)c1` [Example 390, (9S,13S,19aS,22R)-22-benzyl-18-cyclobutyl-13-isobutyl-N-(3-methoxyphenethyl)-12-methyl-7,11,14,20-tetraoxo-7,8,9,10,11,12,13,14,17,18,19,19a,20,21,22,23-hexadecahydro-16H-pyrazino[2′,11:6,7][1]oxa[4,7,10,14]tetraazacycloheptadecino[17,16-c]quinoline-9-carboxamide], the 50% effective concentration (EC50) under setting [1] amounted to 269 nM. Moreover, under setting [2], the Emax was 188%.
On to `COc1cccc(CCNC(=O)[C@@H]2CC(=O)N(C)[C@@H](CC(C)C)C(=O)N3CCN(C4CCC4)C[C@@H]3C(=O)N[C@H](Cc3ccccc3)COc3cnc4ccccc4c3C(=O)N2)c1` [Example 391, (9S,13S,19aR,22R)-22-benzyl-18-cyclobutyl-13-isobutyl-N-(3-methoxyphenethyl)-12-methyl-7,11,14,20-tetraoxo-7,8,9,10,11,12,13,14,17,18,19,19a,20,21,22,23-hexadecahydro-16H-pyrazino[2′,1′:6,7][1]oxa[4,7,10,14]tetraazacycloheptadecino[17,16-c]quinoline-9-carboxamide], for which the EC50 under setting [1] is 70 nM. Besides, the Emax under setting [2] came out at 319%.
In the case of `CC(C)C[C@H]1C(=O)N2CCN(C3CC3)C[C@H]2C(=O)N[C@H](Cc2ccccc2)COc2cnc3ccccc3c2C(=O)N[C@H](C(=O)NCCc2ccc3c(c2)OCO3)CC(=O)N1C` [Example 392, (9S,13S,19aS,22R)-N-(2-(benzo[d][1,3]dioxol-5-yl)ethyl)-22-benzyl-18-cyclopropyl-13-isobutyl-12-methyl-7,11,14,20-tetraoxo-7,8,9,10,11,12,13,14,17,18,19,19a,20,21,22,23-hexadecahydro-16H-pyrazino[2′,1′:6,7][1]oxa[4,7,10,14]tetraazacycloheptadecino[17,16-c]quinoline-9-carboxamide], the 50% effective concentration (EC50) under setting [1] amounted to 327 nM. Under setting [2], the Emax amounted to 144%.
On the same counts, the results for `CC(C)C[C@H]1C(=O)N2CCN(C3CC3)C[C@@H]2C(=O)N[C@H](Cc2ccccc2)COc2cnc3ccccc3c2C(=O)N[C@H](C(=O)NCCc2ccc3c(c2)OCO3)CC(=O)N1C` [Example 393, (9S,13S,19aR,22R)-N-(2-(benzo[d][1,3]dioxol-5-yl)ethyl)-22-benzyl-18-cyclopropyl-13-isobutyl-12-methyl-7,11,14,20-tetraoxo-7,8,9,10,11,12,13,14,17,18,19,19a,20,21,22,23-hexadecahydro-16H-pyrazino[2′,11:6,7][1]oxa[4,7,10,14]tetraazacycloheptadecino[17,16-c]quinoline-9-carboxamide] are 118 nM and 314%.
Consider `CC(C)C[C@H]1C(=O)N2CCN(C3CCC3)C[C@H]2C(=O)N[C@H](Cc2ccccc2)COc2cnc3ccccc3c2C(=O)N[C@H](C(=O)NCCc2ccc3c(c2)OCO3)CC(=O)N1C` [Example 394, (9S,13S,19aS,22R)-N-(2-(benzo[d][1,3]dioxol-5-yl)ethyl)-22-benzyl-18-cyclobutyl-13-isobutyl-12-methyl-], for which the EC50 under setting [1] worked out at 262 nM. Under setting [2], the Emax was 151%.
With `CC(C)C[C@H]1C(=O)N2CCN(C3CCC3)C[C@@H]2C(=O)N[C@H](Cc2ccccc2)COc2cnc3ccccc3c2C(=O)N[C@H](C(=O)NCCc2ccc3c(c2)OCO3)CC(=O)N1C` [Example 395, (9S,13S,19aR,22R)-N-(2-(benzo[d][1,3]dioxol-5-yl)ethyl)-22-benzyl-18-cyclobutyl-13-isobutyl-12-methyl-7,11,14,20-tetraoxo-7,8,9,10,11,12,13,14,17,18,19,19a,20,21,22,23-hexadecahydro-16H-pyrazino[2′,11:6,7][1]oxa[4,7,10,14]tetraazacycloheptadecino[17,16-c]quinoline-9-carboxamide], under setting [1], the EC50 stood at 110 nM. Also, the Emax under setting [2] came out at 316%.
In the case of `COCCCN1C(=O)[C@H](CC(C)C)N(C)C(=O)C[C@@H](C(=O)NCCc2cccc(OC)c2)NC(=O)c2c(ccc3ccccc23)OC[C@@H](Cc2ccccc2)NC(=O)C12CC2` [Example 396, (3′S,7′S,13′R)-13′-benzyl-7′-isobutyl-N-(3-methoxyphenethyl)-9′-(3-methoxypropyl)-6′-methyl-1′,5′,8′,11′-tetraoxo-2′,3′,4′,5′,6′,7′,8′,9′,11′,12′,13′,14′-dodecahydro-1′H-spiro[cyclopropane-1,10′-naphtho[1,2-p][1]oxa[4,7,10,14]tetraazacycloheptadecine]-3′-carboxamide], the EC50 under setting [1] turned out to be 241 nM. Besides, the Emax under setting [2] is 190%.
As to `CCOc1cccc(CCNC(=O)[C@@H]2CC(=O)N(C)[C@@H](CC(C)C)C(=O)N3CCOC[C@@H]3C(=O)N[C@H](Cc3ccccc3)COc3ccc4ccccc4c3C(=O)N2)c1` [Example 397, (4aR,7R,18S,22S)-7-benzyl-N-(3-ethoxyphenethyl)-22-isobutyl-21-methyl-5,16,20,23-tetraoxo-1,2,4,4a,5,6,7,8,16,17,18,19,20,21,22,23-hexadecahydronaphtho[1,2-p][1,4]oxazino[3,4-f][1]oxa[4,7,10,14]tetraazacycloheptadecine-18-carboxamide], under setting [1], the concentration for a half-maximal effect (EC50) was found to be 262 nM. Moreover, the Emax under setting [2] came to 207%.
`CC(C)C[C@H]1C(=O)N2CCN(C3CC3)C[C@@H]2C(=O)N[C@H](Cc2ccccc2)COc2cnc3ccccc3c2C(=O)N[C@H](C(=O)NCCc2cccc(OC(F)F)c2)CC(=O)N1C` [Example 398, (9S,13S,19aR,22R)-22-benzyl-18-cyclopropyl-N-(3-(difluoromethoxy)phenethyl)-13-isobutyl-12-methyl-7,11,14,20-tetraoxo-7,8,9,10,11,12,13,14,17,18,19,19a,20,21,22,23-hexadecahydro-16H-pyrazino[2′,11:6,7][1]oxa[4,7,10,14]tetraazacycloheptadecino[17,16-c]quinoline-9-carboxamide]: under setting [3], the EC50 is 125 nM. Besides, the maximum response (Emax) under setting [4] is 280%.
Turning to `CC(C)C[C@H]1C(=O)N2CCN(C3CC3)C[C@H]2C(=O)N[C@H](Cc2ccccc2)COc2cnc3ccccc3c2C(=O)N[C@H](C(=O)NCCc2cccc(OC(F)F)c2)CC(=O)N1C` [Example 399, (9S,13S,19aS,22R)-22-benzyl-18-cyclopropyl-N-(3-(difluoromethoxy)phenethyl)-13-isobutyl-12-methyl-7,11,14,20-tetraoxo-7,8,9,10,11,12,13,14,17,18,19,19a,20,21,22,23-hexadecahydro-16H-pyrazino[2′,1′:6,7][1]oxa[4,7,10,14]tetraazacycloheptadecino[17,16-c]quinoline-9-carboxamide], the half-maximal effective concentration (EC50) under setting [3] came out at 506 nM. The maximum response (Emax) under setting [4] stood at 146%.
For `CCOc1cccc(CCNC(=O)[C@@H]2CC(=O)N(C)[C@@H](CC(C)C)C(=O)N3CCN(C4CC4)C[C@@H]3C(=O)N[C@H](Cc3ccccc3)COc3cnc4ccccc4c3C(=O)N2)c1` [Example 400, (9S,13S,19aR,22R)-22-benzyl-18-cyclopropyl-N-(3-ethoxyphenethyl)-13-isobutyl-12-methyl-7,11,14,20-tetraoxo-7,8,9,10,11,12,13,14,17,18,19,19a,20,21,22,23-hexadecahydro-16H-pyrazino[2′,11:6,7][1]oxa[4,7,10,14]tetraazacycloheptadecino[17,16-c]quinoline-9-carboxamide], under setting [3], the EC50 was 164 nM. Further, the maximum response (Emax) under setting [4] was determined as 292%.
On the same counts, the results for `CCOc1cccc(CCNC(=O)[C@@H]2CC(=O)N(C)[C@@H](CC(C)C)C(=O)N3CCN(C4CC4)C[C@H]3C(=O)N[C@H](Cc3ccccc3)COc3cnc4ccccc4c3C(=O)N2)c1` [Example 401, (9S,13S,19aS,22R)-22-benzyl-18-cyclopropyl-N-(3-ethoxyphenethyl)-13-isobutyl-12-methyl-7,11,14,20-tetraoxo-7,8,9,10,11,12,13,14,17,18,19,19a,20,21,22,23-hexadecahydro-16H-pyrazino[2′,1′:6,7][1]oxa[4,7,10,14]tetraazacycloheptadecino[17,16-c]quinoline-9-carboxamide] are 559 nM and 189%.
Consider `Cc1cc(CCNC(=O)[C@@H]2CC(=O)N(C)[C@@H](CC(C)C)C(=O)N3CCN(C4CC4)C[C@@H]3C(=O)N[C@H](Cc3ccccc3)COc3cnc4ccccc4c3C(=O)N2)on1` [Example 402, (9S,13S,19aR,22R)-22-benzyl-18-cyclopropyl-13-isobutyl-12-methyl-N-(2-(3-methylisoxazol-5-yl)ethyl)-7,11,14,20-tetraoxo-7,8,9,10,11,12,13,14,17,18,19,19a,20,21,22,23-hexadecahydro-16H-pyrazino[2′,11:6,7][1]oxa[4,7,10,14]tetraazacycloheptadecino[17,16-c]quinoline-9-carboxamide], for which the EC50 under setting [3] was determined as 305 nM. Under setting [4], the Emax came to 314%.
`Cc1cc(CCNC(=O)[C@@H]2CC(=O)N(C)[C@@H](CC(C)C)C(=O)N3CCN(C4CC4)C[C@H]3C(=O)N[C@H](Cc3ccccc3)COc3cnc4ccccc4c3C(=O)N2)on1` [Example 403, (9S,13S,19aS,22R)-22-benzyl-18-cyclopropyl-13-isobutyl-12-methyl-N-(2-(3-methylisoxazol-5-yl)ethyl)-7,11,14,20-tetraoxo-7,8,9,10,11,12,13,14,17,18,19,19a,20,21,22,23-hexadecahydro-16H-pyrazino[2′,11:6,7][1]oxa[4,7,10,14]tetraazacycloheptadecino[17,16-c]quinoline-9-carboxamide]: under setting [3], the concentration giving a half-maximal response (EC50) stood at 550 nM. The Emax under setting [4] was found to be 179%.
